Here are results for one molecule from patent US8569580B2, “Transformed plants or algae with highly expressed chloroplast protein BPG2” (Riken, priority 2010, dated 2013).

For data set [1], the target named is cytochrome P450 steroid C-22 hydroxylase encoded by the DWF4 gene (Arabidopsis thaliana, UniProt O64989). Particulars: Asami et al., 2000, 2001; cited from earlier work.
The subject of data set [2] is Arabidopsis bpg2 mutants and wild type. Put plainly: Northern blot analysis of photosynthesis gene expression. Particulars: bpg2 mutants versus wild type, dark grown 5-day seedlings, 1 μM Brz. In kind it is in vivo, Arabidopsis thaliana. The protocol:
FIG. 7. Chloroplast gene expression in bpg2 mutants. Total RNA was extracted from light grown 4-day-old seedlings (a), 3-week-old rosette leaves (b) and dark grown 5-day-seedling (c) of wild type (WT), bpg2-1, and bpg2-2. Northern blot analysis was carried out using probes for psbA and rbcL, encoded in the chloroplast, and rbcS, CAB, and 18S rRNA, encoded in the nucleus. (c) Seedlings were germinated with 0 or 1 μM Brz in the dark.
Total RNA was extracted from light grown 4-day-old seedlings, 3-week-old rosette leaves and dark grown 5-day-old seedlings of wild type, bpg2-1 and bpg2-2 with the RNeasy Plant Mini kit (Qiagen). Total RNA (3 μg) was separated in 1.2% agarose/0.66 M formaldehyde gels and blotted on Hybond N^+ (Amersham). After transfer, the ECL Direct Nucleic Acid Labeling and Detection system (GE Healthcare) was used for hybridization, and LAS-4000 mini (Fuji Film) was used for analysis of chemical fluorescence.

A further data set has as its system wild-type Arabidopsis. Put plainly: RT-PCR analysis of gene expression in dark-grown plants with Brz. Format: in vivo, Arabidopsis thaliana. The conditions noted are these: wild type grown in the dark 7 days with Brz 0.1, 1, 3 μM. The source says:
FIG. 6. Inducible expression of BPG2 by light and Brz. (a) RT-PCR analysis of BPG2 gene expression in different organs: root (R), stem (S), rosette leaf blade (LB), rosette leaf petiole (LP), cauline leaves (CL), and flowers (F) of wild-type Arabidopsis. ACT2 served as an internal control. (b) RT-PCR analysis of expression of BPG2, CAB, and rbcS after exposure to light. Total RNAs were extracted from the wild type germinated in the dark for 7 days and exposed to light for 0 (lane 1, 0), 0.5 (lane 2, 0.5), 1 (lane 3, 1), 2 (lane 4, 2), or 4 h (lane 5, 4), and from 7-day-old wild type under long-day conditions (16 h light and 8 h dark; lane 6, L). (c) RT-PCR analysis of expression of BPG2, CAB, rbcS, and DWF4 on Brz. Total RNAs were extracted from wild type germinated in the dark for 7 days with Brz.
Total RNA was extracted from wild type and bpg2 mutants with the RNeasy Plant mini kit (Qiagen). First strand cDNA was synthesized with Super Script III first-strand cDNA synthesis for RT (Invitrogen) and used as template. RT-PCR was performed with Ex Taq (Takara Bio). […]

The test system of a further data set is Arabidopsis bpg2-1. Kind of data set: Hypocotyl phenotype when grown with Brz in the dark. In kind it is in vivo, Arabidopsis thaliana. Particulars: bpg2-1 grown with Brz in the dark (data not shown).
In data set [3] the test system is Arabidopsis thaliana seedlings. Put plainly: Immunoblot analysis of chloroplast proteins. In kind it is in vivo. The conditions noted are these: 1 μM Brz. The protocol:
of wild type, bpg2-1, and bpg2-2 were ground in liquid nitrogen and extracted by boiling with two volumes/fresh weight of 1× Laemmli buffer [50 mM Tris-HCl (pH 6.8), 100 mM DTT, 2% (w/v) SDS, 0.1% (w/v) bromophenol blue, and 10% (w/v) glycerol] for immunoblot analysis of Rubisco LSU, SSU, and LHCP. Total proteins for immunoblot analysis of D1 protein were prepared as described (Nakajima et al., 1996). Proteins were separated by SDS-PAGE (12.5% acrylamide separating gel). After electrophoresis, the proteins were stained with Coomassie Brilliant Blue or electrophoretically transferred to Hybond ECL nitrocellulose membrane (Amersham). After blocking overnight in TBS (20 mM Tris, 0.137 M NaCl, pH7.4, 0.05% polyoxyethlene sorbital monolaurate) buffer containing 5% non-fat milk (Morinagamilk) at room temperature, the membrane was incubated in TBS buffer containing non-fat milk with polyclonal antibody for 1 h at room temperature. After washing in TBS buffer, the blots were incubated with horseradish peroxidase-conjugated secondary antibody (Promega for Rubisco L/S and LHCP, and Cosmo Bio for D1) for 1 h at room temperature, and the complexes were made visible with ECL Immoblin Western (Millipore). The polyclonal antibody against the tobacco Rubisco L/S complex was provided by F. Sato of Kyoto University. The polyclonal antibody against D1 and LHCP protein was obtained from Agrisera. LAS-4000 mini (Fuji Film) was used for detection.
To analyze BPG2 function with BR on chloroplast protein accumulation, we performed immunoblot analysis seedlings of wild type and bpg2 mutants in the light with and without Brz (FIG. 10). In wild type, Rubisco LSU protein from Brz-treated seedlings increased about 1.4-fold and D1 protein increased about 1.3-fold compared to that of no-Brz seedlings (FIG. 10a, b). […] The effect of BPG2 deficiency on LHCP protein was much smaller than on D1 and Rubisco LSU.

Data set [4] deals with Arabidopsis thaliana seedlings. Put plainly: Measurement of chlorophyll a and b in seedlings. Format: in vivo. The conditions noted are these: 4 days, long days. The protocol: Arabidopsis thaliana Columbia-0 (Col-0) was used as the wild type. For cotyledon analysis, plants were germinated and grown on ½ MS medium (Duchefa) containing 1.5% sucrose and 0.9% phytoagar (Duchefa), with or without Brz. Germinated plants were transferred to soil. Conditions in the growth chamber were 16 h light (100 μE m^−2 sec^−1 white light)/8 h dark at 22° C. […] Plants were homogenized in 80% (v/v) acetone. The chlorophyll content of the centrifuged supernatants was determined at 645 nm and 663 nm. Chlorophyll a and b content were determined according to Arnon (1949): Chlorophyll a (μg/mg fresh weight)=(12.7A663−[…])/mg fresh weight Chlorophyll b (μg/mg fresh weight)=(22.9A645−4.67A663)/mg fresh weight

The mark [5] stands for this setting: wild type, germinated in the light for 3 days.

Chain of cytochrome P450 steroid C-22 hydroxylase encoded by the DWF4 gene (O64989 whole entry): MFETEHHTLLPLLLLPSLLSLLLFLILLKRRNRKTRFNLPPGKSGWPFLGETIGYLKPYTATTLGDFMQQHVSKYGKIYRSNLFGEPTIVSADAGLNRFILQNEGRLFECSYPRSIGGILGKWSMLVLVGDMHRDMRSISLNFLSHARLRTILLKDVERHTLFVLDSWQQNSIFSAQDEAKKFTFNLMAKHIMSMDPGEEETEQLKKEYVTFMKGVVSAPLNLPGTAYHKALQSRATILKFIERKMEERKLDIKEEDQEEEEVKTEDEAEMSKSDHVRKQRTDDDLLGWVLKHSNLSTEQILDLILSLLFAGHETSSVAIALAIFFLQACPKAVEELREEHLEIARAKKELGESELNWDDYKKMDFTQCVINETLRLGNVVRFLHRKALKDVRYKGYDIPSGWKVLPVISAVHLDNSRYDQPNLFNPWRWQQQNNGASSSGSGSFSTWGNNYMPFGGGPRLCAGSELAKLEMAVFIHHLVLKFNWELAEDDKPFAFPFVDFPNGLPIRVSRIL

Regarding `CC(O)(c1ccccc1)C(Cc1ccc(Cl)cc1)n1cncn1` (centres unmarked) [Brz, brassinazole], in data set [1], the “binding to cytochrome P450 steroid C-22 hydroxylase (DWF4)” value was “binds directly”. The “expression of psbA, rbcL, CAB and rbcS” value in data set [2] is recorded as “to the same degree in bpg2 mutants as in wild type”. In the data set with wild-type Arabidopsis, the BPG2 gene expression entry is on record as “actually increased”; the “expression of CAB and rbcS” value is given as “increased”. The hypocotyl phenotype entry in the data set on Arabidopsis bpg2-1 is “same short hypocotyl as the wild type plants”. In addition, in data set [3] (bpg2 mutants, light 3 days), the “D1 protein of Brz-treated seedlings” value is on record as “the same as in no-Brz seedlings” and the “Rubisco LSU protein of Brz-treated seedlings” value is recorded as “the same as in no-Brz seedlings”. Moreover, the “induction of Rubisco LSU protein and D1 protein by Brz” value in data set [3] (clpB3 and clpC1 mutants, light 3 days) is recorded as “no induction”. In data set [3] (setting [5]), the “D1 protein, Brz-treated compared to no-Brz seedlings” value is “about 1.3 fold” and the “Rubisco LSU protein, Brz-treated compared to no-Brz seedlings” value is “about 1.4 fold”. Besides, in data set [3] (wild type, light 3 days), the “Rubisco SSU protein” value was “increased” and the “nuclear encoded-LHCP protein” value is reported as “increased”. Besides, in data set [4] (bpg2:35S-BPG2 transformants, Brz 1 μM), the “chlorophyll levels following Brz treatment” value is “increase in chlorophyll levels”. In addition, in data set [4] (wild-type seedlings, Brz 0.1 and 1 μM, light), the “endogenous chlorophyll a and b levels” value is recorded as “increased”.
